In patent US10766864B2, “Morphinan derivatives for the treatment of neuropathic pain” (Nektar Therapeutics, priority 2015, dated 2020):
Like-named read-outs stand apart in the source and are kept apart here.

How the values were obtained:
mu opioid receptor (MOR) = mu opioid receptor (MOR) (Homo sapiens (Human), UniProt P35372); assay: Competitive radioligand binding at MOR ([3H] Naloxone)
Description: (§1) Receptor Binding at MOR and NMDA.
(§2) Affinities of various compounds were measured in vitro using competitive radioligand binding assays. Serial dilutions of test compounds were incubated with membranes prepared from CHO-K1 cells expressing the mu opioid receptor (MOR; for opioid receptor binding) or rat forebrain membranes (for NMDA receptor binding). 2 nM [^3H] Naloxone (MOR) or 0.2 nM [^3H] MK801 (NMDA) were used as the specific, competitive radioligands. 10 uM Naloxone (MOR), or 10 uM MK801 (NMDA) was used to determine non-specific binding. Bound radioactivity was measured using a scintillation counter & IC50 values for test compounds were determined by non-linear regression analysis using a one-site competition model (Graph Pad Prizm). Due to each test compound being solubilized in a buffered system for the assay, the results presented herein reflect the free base activity.

NMDA receptor = assay: Competitive radioligand binding at NMDA receptor ([3H] MK801), rat forebrain membranes; settings: 0.2 nM [3H] MK801, reflects free base activity
Description: as §1, §2

[1] = membranes from CHO-K1 cells expressing MOR, 2 nM [3H] Naloxone, reflects free base activity, read-out: MOR IC50

Structure (SMILES)	IC50 (mu opioid receptor (MOR)) [nM]	IC50 (NMDA receptor) [nM]	IC50 (mu opioid receptor (MOR); [1]) [nM]
COc1ccc(C(=O)Nc2ccc3c(c2)[C@@]24CCCC[C@H]2[C@@H](C3)N(C)CC4)cc1 [Compound 24, 4-methoxy-N-((4bR,8aR,9R)-11-methyl-6,7,8,8a,9,10-hexahydro-5H-9,4b-(epiminoethano)phenanthren-3-yl)benzamide]	100 to 1000	> 10000	–
COc1cccc(C(=O)Nc2ccc3c(c2)[C@@]24CCCC[C@H]2[C@@H](C3)N(C)CC4)c1 [Compound 25, 3-methoxy-N-((4bR,8aR,9R)-11-methyl-6,7,8,8a,9,10-hexahydro-5H-9,4b-(epiminoethano)phenanthren-3-yl)benzamide]	–	> 10000	> 1000
COc1ccccc1C(=O)Nc1ccc2c(c1)[C@@]13CCCC[C@H]1[C@@H](C2)N(C)CC3 [Compound 26, 2-methoxy-N-((4bR,8aR,9R)-11-methyl-6,7,8,8a,9,10-hexahydro-5H-9,4b-(epiminoethano)phenanthren-3-yl)benzamide]	–	> 10000	> 1000
COc1ccc(NC(=O)Nc2ccc3c(c2)[C@@]24CCCC[C@H]2[C@@H](C3)N(C)CC4)cc1 [Compound 27, 1-(4-methoxyphenyl)-3-(17-methylmorphinan-3-yl)urea]	10 to 100	1000 to 10000	–
COc1ccc(Nc2ccc3c(c2)[C@@]24CCCC[C@H]2[C@@H](C3)N(C)CC4)cc1 [Compound 28, N-(4-methoxyphenyl)-17-methylmorphinan-3-amine]	0.1 to 10	1000 to 10000	–
COc1cccc(Nc2ccc3c(c2)[C@@]24CCCC[C@H]2[C@@H](C3)N(C)CC4)c1 [Compound 29, N-(3-methoxyphenyl)-17-methylmorphinan-3-amine]	0.1 to 10	1000 to 10000	–
COCCO[C@@H]1CC[C@H]2[C@H]3Cc4ccc(O)cc4[C@@]2(CCN3C)C1 [Compound 31, (6β)-6-(2-methoxyethoxy)-17-methylmorphinan-3-ol]	0.1 to 10	1000 to 10000	–
CN1CC[C@]23CCCC[C@H]2[C@H]1Cc1ccc(Nc2ncccn2)cc13 [Compound 32, 17-methyl-N-(pyrimidin-2-yl)morphinan-3-amine]	–	100 to 1000	> 1000
COCCOCCOc1cccc(Nc2ccc3c(c2)[C@@]24CCCC[C@H]2[C@@H](C3)N(C)CC4)c1 [Compound 34, N-{3-[2-(2-methoxyethoxy)ethoxy]phenyl}-17-methylmorphinan-3-amine]	–	> 10000	0.1 to 10
COCCOCCOc1ccccc1Nc1ccc2c(c1)[C@@]13CCCC[C@H]1[C@@H](C2)N(C)CC3 [Compound 35, N-{2-[2-(2-methoxyethoxy)ethoxy]phenyl}-17-methylmorphinan-3-amine]	–	> 10000	100 to 1000
CN1CC[C@]23CCCC[C@H]2[C@H]1Cc1ccc(NS(C)(=O)=O)cc13 [Compound 37, N-(17-methylmorphinan-3-yl)methanesulfonamide]	100 to 1000	1000 to 10000	–
COc1ccc(NC(=O)c2ccc3c(c2)[C@@]24CCCC[C@H]2[C@@H](C3)N(C)CC4)cc1 [Compound 38, N-(4-methoxyphenyl)-17-methylmorphinan-3-carboxamide]	100 to 1000	> 10000	–
COCCOCCNC(=O)c1ccc2c(c1)[C@@]13CCCC[C@H]1[C@@H](C2)N(C)CC3 [Compound 39, N-[2-(2-methoxyethoxy)ethyl]-17-methylmorphinan-3-carboxamide]	100 to 1000	> 10000	–
CN1CC[C@]23CCCC[C@H]2[C@H]1Cc1ccc(NC(=O)OC(C)(C)C)cc13 [Compound 40, tert-butyl (17-methylmorphinan-3-yl)carbamate]	100 to 1000	1000 to 10000	–
COCCOCCOCCNC(=O)c1ccc2c(c1)[C@@]13CCCC[C@H]1[C@@H](C2)N(C)CC3 [Compound 41, N-{2-[2-(2-methoxyethoxy)ethoxy]ethyl}-17-methylmorphinan-3-carboxamide]	–	> 10000	> 1000
COCCOCCOCCOCCOCCOCC(=O)Nc1ccc2c(c1)[C@@]13CCCC[C@H]1[C@@H](C2)N(C)CC3 [Compound 42, N-(17-methylmorphinan-3-yl)-2,5,8,11,14,17-hexaoxanonadecan-19-amide]	–	> 10000	100 to 1000
CN1CC[C@]23CCCC[C@H]2[C@H]1Cc1ccc(-c2ccncc2)cc13 [Compound 45, 17-methyl-3-(pyridin-4-yl)morphinan]	–	1000 to 10000	> 1000
COCCOCCOc1cncc(Nc2ccc3c(c2)[C@@]24CCCC[C@H]2[C@@H](C3)N(C)CC4)c1 [Compound 48, N-{5-[2-(2-methoxyethoxy)ethoxy]pyridin-3-yl}-17-methylmorphinan-3-amine]	–	> 10000	10 to 100

Structure (SMILES)	IC50 (mu opioid receptor (MOR)) [nM]	IC50 (NMDA receptor) [nM]	IC50 (mu opioid receptor (MOR); [1]) [nM]
CN1CC[C@]23CCCC[C@H]2[C@H]1Cc1ccc(Nc2ccncc2)cc13 [Compound 49, 17-methyl-N-(pyridin-4-yl)morphinan-3-amine]	100 to 1000	0.1 to 100	–
CN1CC[C@]23CCCC[C@H]2[C@H]1Cc1ccc(Nc2ccncn2)cc13 [Compound 50, 17-methyl-N-(pyrimidin-4-yl)morphinan-3-amine]	100 to 1000	0.1 to 100	–
CN1CC[C@]23CCCC[C@H]2[C@H]1Cc1ccc(-c2ccoc2)cc13 [Compound 51, 3-(3-furyl)-17-methylmorphinan]	10 to 100	1000 to 10000	–
CN1CC[C@]23CCCC[C@H]2[C@H]1Cc1ccc(-c2cnc(N)nc2)cc13 [Compound 52, 5-(17-methylmorphinan-3-yl)pyrimidin-2-amine]	–	1000 to 10000	> 1000
CN1CC[C@]23CCCC[C@H]2[C@H]1Cc1ccc(Nc2cncnc2)cc13 [Compound 53, 17-methyl-N-(pyrimidin-5-yl)morphinan-3-amine]	10 to 100	> 10000	–
COCCOCCOCCOCCOCCOc1cncc(Nc2ccc3c(c2)[C@@]24CCCC[C@H]2[C@@H](C3)N(C)CC4)c1 [Compound 54, (4bR,8aR,9R)—N-(5-(2,5,8,11,14-pentaoxahexadecan-16-yloxy)pyridin-3-yl)-11-methyl-6,7,8,8a,9,10-hexahydro-5H-9,4b-(epiminoethano)phenanthren-3-amine]	–	> 10000	10 to 100
CN1CC[C@]23CCCC[C@H]2[C@H]1Cc1ccc(Nc2cnccn2)cc13 [Compound 55, 17-methyl-N-(pyrazin-2-yl)morphinan-3-amine]	0.1 to 10	> 10000	–
CN1CC[C@]23CCCC[C@H]2[C@H]1Cc1ccc(Nc2ccnnc2)cc13 [Compound 56, 17-methyl-N-(pyridazin-4-yl)morphinan-3-amine]	100 to 1000	0.1 to 100	–
CN1CC[C@]23CCCC[C@H]2[C@H]1Cc1ccc(N(c2ccccn2)c2ccccn2)cc13 [Compound 57, 17-methyl-N,N-di(pyridin-2-yl)morphinan-3-amine]	–	1000 to 10000	> 1000
COCCOCCOc1ccc(Nc2ccc3c(c2)[C@@]24CCCC[C@H]2[C@@H](C3)N(C)CC4)cn1 [Compound 58, N-{6-[2-(2-methoxyethoxy)ethoxy]pyridin-3-yl}-17-methylmorphinan-3-amine]	–	> 10000	10 to 100
COCCNc1ccc2c(c1)[C@@]13CCCC[C@H]1[C@@H](C2)N(C)CC3 [Compound 59, N-(2-methoxyethyl)-17-methylmorphinan-3-amine]	100 to 1000	1000 to 10000	–
CN1CC[C@]23CCCC[C@H]2[C@H]1Cc1ccc(Nc2cccnn2)cc13 [Compound 61, 17-methyl-N-(pyridazin-3-yl)morphinan-3-amine]	100 to 1000	1000 to 10000	–
CN1CC[C@]23CCCC[C@H]2[C@H]1Cc1ccc(-n2ccnc2)cc13 [Compound 62, 3-(1H-imidazol-1-yl)-17-methylmorphinan]	10 to 100	100 to 1000	–
CN1CC[C@]23CCCC[C@H]2[C@H]1Cc1ccc(Nc2ccccn2)cc13 [Compound 63, 17-methyl-N-(pyridin-2-yl)morphinan-3-amine]	100 to 1000	100 to 1000	–
COCCOCCOCCOCCOCCOc1ccc(Nc2ccc3c(c2)[C@@]24CCCC[C@H]2[C@@H](C3)N(C)CC4)cn1 [Compound 64, 17-methyl-N-[6-(2,5,8,11,14-pentaoxahexadecan-16-yloxy)pyridin-3-yl]morphinan-3-amine]	–	> 10000	10 to 100
COCCOCCn1cc(-c2ccc3c(c2)C24CCCCC2C(C3)N(C)CC4)cn1 (stereo not drawn) [Compound 65, 3-{1-[2-(2-methoxyethoxy)ethyl]-1H-pyrazol-4-yl}-17-methylmorphinan]	–	> 10000	> 1000
COCCOCCOc1cnccc1Nc1ccc2c(c1)[C@@]13CCCC[C@H]1[C@@H](C2)N(C)CC3 [Compound 66, (4bR,8aR,9R)—N-(3-(2-(2-methoxyethoxy)ethoxy)pyridin-4-yl)-11-methyl-6,7,8,8a,9,10-hexahydro-5H-9,4b-(epiminoethano)phenanthren-3-amine]	–	1000 to 10000	100 to 1000
COCCOCCOc1cc(Nc2ccc3c(c2)[C@@]24CCCC[C@H]2[C@@H](C3)N(C)CC4)ccn1 [Compound 67, N-{2-[2-(2-methoxyethoxy)ethoxy]pyridin-4-yl}-17-methylmorphinan-3-amine]	–	> 10000	100 to 1000
